ChEMBL document CHEMBL1201862, “PubChem BioAssay data set” (2004)
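Exposure lasted 48 hours, with cells grown in 96-well plates and compounds tested at five concentrations. Abbreviation: GI50, concentration required for 50% inhibition of growth.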 Active and inactive are the calls of the source. Cut-off read from the data, not from the text of the source: active = GI50 up to about 1.1 µM and inactive = higher.

Assays:
Assay in all cases: NCI tumour cell line growth inhibition, 48 h
786-0 = tested on: 786-0
ACHN = tested on: ACHN
CAKI-1 = tested on: CAKI-1
HT-29 = tested on: HT-29
LOX IMVI = tested on: LOX IMVI
M14 = tested on: M14
MCF7 = tested on: MCF7
MDA-N = tested on: MDA-N
OVCAR-3 = tested on: OVCAR-3
OVCAR-5 = tested on: OVCAR-5
OVCAR-8 = tested on: OVCAR-8
PC-3 = tested on: PC-3
SF-295 = tested on: SF-295
SF-539 = tested on: SF-539
SK-MEL-2 = tested on: SK-MEL-2
SK-MEL-5 = tested on: SK-MEL-5
SN12C = tested on: SN12C
SR = tested on: SR
CCRF-CEM = tested on: CCRF-CEM

Measured: GI50

NS(=O)(=O)c1ccc(/N=N/c2nc3nc(O)nc(O)c3[nH]2)cc1
inactive: 786-0 > 100 µM | ACHN > 100 µM | CAKI-1 > 100 µM | HT-29 > 100 µM | LOX IMVI > 100 µM | M14 > 100 µM | MCF7 > 100 µM | MDA-N > 100 µM | OVCAR-3 > 100 µM | OVCAR-5 > 100 µM | OVCAR-8 > 100 µM | PC-3 > 100 µM | SF-295 > 100 µM | SF-539 > 100 µM | SK-MEL-2 > 100 µM | SK-MEL-5 > 100 µM | SN12C > 100 µM | SR 39.8 µM

CN(C)/C=C1\CCc2ccc([N+](=O)[O-])cc2C1=O
inactive: 786-0 48.6 µM | ACHN > 100 µM | CAKI-1 > 100 µM | CCRF-CEM 19.8 µM | HT-29 24.3 µM | LOX IMVI 19.6 µM | M14 89.9 µM | MCF7 26 µM | MDA-N 19.2 µM | OVCAR-3 18.3 µM | OVCAR-5 > 100 µM | OVCAR-8 45.7 µM | PC-3 30.6 µM | SF-295 > 100 µM | SK-MEL-2 > 100 µM | SK-MEL-5 92.9 µM | SN12C 18.3 µM | SR 31 µM

CCOC(=O)c1c(CN2CCCC2)n(-c2ccccc2)c2cc(Br)c(O)cc12
inactive: 786-0 16.7 µM | ACHN 17.8 µM | CAKI-1 17.1 µM | CCRF-CEM 2.06 µM | HT-29 5.86 µM | LOX IMVI 16 µM | M14 15.5 µM | MCF7 21 µM | MDA-N 17.2 µM | OVCAR-3 15.9 µM | OVCAR-5 19.1 µM | OVCAR-8 22.9 µM | PC-3 21.3 µM | SF-295 16.6 µM | SK-MEL-2 18.3 µM | SK-MEL-5 13.4 µM | SN12C 16.4 µM | SR 18.7 µM

Fc1cccc(F)c1C1SCC2=Nc3ccccc3CN21 (stereo unspecified)
inactive: 786-0 32.4 µM | ACHN 33.7 µM | CAKI-1 > 100 µM | CCRF-CEM > 100 µM | LOX IMVI > 100 µM | M14 91.2 µM | MCF7 35 µM | MDA-N > 100 µM | OVCAR-3 19 µM | OVCAR-5 56 µM | PC-3 30.8 µM | SF-295 38.1 µM | SF-539 26.7 µM | SK-MEL-5 31.4 µM | SN12C > 100 µM | SR 37.8 µM

CC1CC(OP(=O)(OCc2ccccc2)OCc2ccccc2)[C@@H](OCc2ccccc2)C(OCc2ccccc2)C1OCc1ccccc1 (stereo partly specified)
inactive: 786-0 > 100 µM | ACHN 43.9 µM | CAKI-1 > 100 µM | CCRF-CEM > 100 µM | HT-29 67.9 µM | LOX IMVI > 100 µM | M14 > 100 µM | MCF7 40.2 µM | MDA-N > 100 µM | OVCAR-5 > 100 µM | OVCAR-8 > 100 µM | PC-3 23.4 µM | SF-295 75.5 µM | SF-539 > 100 µM | SK-MEL-2 > 100 µM | SK-MEL-5 62.5 µM | SN12C > 100 µM | SR > 100 µM

NCCNc1ncnc2ccc(Cl)cc12
inactive: 786-0 > 100 µM | ACHN 66.4 µM | CAKI-1 > 100 µM | CCRF-CEM > 100 µM | HT-29 66.8 µM | LOX IMVI > 100 µM | M14 > 100 µM | MCF7 96.8 µM | MDA-N 99.1 µM | OVCAR-3 > 100 µM | OVCAR-5 > 100 µM | OVCAR-8 74.1 µM | PC-3 75.5 µM | SF-295 > 100 µM | SK-MEL-2 > 100 µM | SK-MEL-5 > 100 µM | SN12C 88.5 µM | SR 45.7 µM

COc1ccc(CC/N=C2\OCc3ccccc32)cc1OC
inactive: 786-0 45.3 µM | ACHN 52.5 µM | CAKI-1 62.4 µM | CCRF-CEM 29.1 µM | HT-29 32.1 µM | LOX IMVI 41.2 µM | MCF7 27.7 µM | MDA-N 38.8 µM | OVCAR-8 91.8 µM | PC-3 46.9 µM | SF-295 33.3 µM | SF-539 20.7 µM | SK-MEL-2 51.2 µM | SK-MEL-5 43.3 µM | SN12C 69.3 µM | SR 11.5 µM

OCC(O)C(Cl)CCl (stereo unspecified)
inactive: 786-0 > 100 µM | ACHN > 100 µM | CAKI-1 > 100 µM | CCRF-CEM > 100 µM | HT-29 > 100 µM | M14 > 100 µM | MCF7 > 100 µM | MDA-N > 100 µM | OVCAR-3 > 100 µM | OVCAR-5 > 100 µM | OVCAR-8 > 100 µM | PC-3 > 100 µM | SF-295 > 100 µM | SF-539 > 100 µM | SK-MEL-5 > 100 µM | SN12C > 100 µM | SR > 100 µM

C[C@@H](NC(=O)Nc1cccc(C(=O)Nc2cc(C(C)(C)C)ccc2C(=O)O)n1)c1ccccc1
inactive: 786-0 37.5 µM | ACHN 35.2 µM | CAKI-1 82.2 µM | HT-29 35.5 µM | LOX IMVI 19.3 µM | M14 31 µM | MCF7 16.4 µM | MDA-N 38.4 µM | OVCAR-3 21.4 µM | OVCAR-5 33.4 µM | OVCAR-8 40.6 µM | PC-3 25.1 µM | SF-295 25.2 µM | SK-MEL-2 18.1 µM | SK-MEL-5 30.1 µM | SN12C 49.8 µM | SR 28.4 µM

CCOC(=O)/C(=C\NC(=S)Nc1ccc(Cl)c(Cl)c1)C(=O)c1ccccc1
inactive: 786-0 58.6 µM | ACHN 18.2 µM | CAKI-1 12.9 µM | CCRF-CEM 31.1 µM | HT-29 33.1 µM | LOX IMVI 69.7 µM | M14 27.3 µM | MCF7 33.3 µM | MDA-N 27.2 µM | OVCAR-5 36.2 µM | OVCAR-8 47.6 µM | PC-3 21.5 µM | SF-295 33.6 µM | SF-539 3.12 µM | SK-MEL-2 21.7 µM | SK-MEL-5 27.1 µM | SN12C 46.5 µM | SR 20.4 µM

C=CCc1c(O)c2ccccc2[nH]c1=O
inactive: 786-0 > 100 µM | ACHN > 100 µM | CAKI-1 > 100 µM | CCRF-CEM > 100 µM | HT-29 > 100 µM | LOX IMVI > 100 µM | MCF7 > 100 µM | MDA-N > 100 µM | OVCAR-3 > 100 µM | OVCAR-5 > 100 µM | OVCAR-8 > 100 µM | PC-3 > 100 µM | SF-295 > 100 µM | SF-539 > 100 µM | SK-MEL-5 > 100 µM | SN12C > 100 µM | SR > 100 µM
